Read-outs that look alike come from different tables or passages of the source. Marks after values point to notes of the source that are not given here.
Columns and labels:
human sebocytes = test: Inhibition of sebocyte lipogenesis (14C-acetate label remaining in sebocytes); assay type: cell-based; details: for IC50: read-out: IC 50 (concentration which provides a 50% sebum suppression relative to the control)
[1] = Light absorbency (color) at 340-500 nm, Spectramax 340 spectrophotometer; assay type: physicochemical; details: from absorbency values at 340-500 nm
[2] = Homo sapiens, 20 hour incubation, 96 well plate
[3] = 20 hour incubation, 96 well plate

Compound `CC(C)CCCC(C)CCCC(C)CCO` (centres unmarked) [Compound 6, 3,7,11-trimethyl 1-dodecanol] has an IC50 (human sebocytes; [2]) greater than 100 µM.
With `CC(C)CCCC(C)CCCC(C)CCOCCC(=O)O` (centres unmarked) [Compound 7, 3,7,11-trimethyl 1-dodecanol carboxyethylate] the IC50 (human sebocytes; [2]) was 10 µM and the “activity as sebum suppressant relative to the branched alcohol from which it is derived” value (human sebocytes; ratio of IC50 values of Table 3) was “at least 10 times”.
With `O=S1(=O)OC(c2ccc(O)cc2)(c2ccc(O)cc2)c2ccccc21` [Phenol Red] the activity at 100 µM (human sebocytes; Homo sapiens, 20 h, read-out: radioactive label remaining in the sebocytes, % of Control) was 46.3%.
For “C13 isoalcohol carboxyethylate (TDCE) [Compound 1]”, the “color compared with TDCM” value [1] was “lighter in color”, the “radioactive label remaining in the sebocytes, % of Control” value (human sebocytes; 1 µM) was 48.7* % and the “radioactive label remaining in the sebocytes, % of Control” value (human sebocytes; 10 µM) was 34.6* %. For the same compound, the “radioactive label remaining in the sebocytes, % of Control” value (human sebocytes; 100 µM) was 11.9* % and the IC50 (human sebocytes; [3]) was 5 µM.
C13 isoalcohol glycerol [Compound 5] gave an IC50 (human sebocytes; [3]) greater than 100 µM.
Compound “C13 isoalcohol propionitrile [Compound 2]” has an IC50 (human sebocytes; [3]) greater than 100 µM.
With Iso-tridecyl carboxymethylate [TDCM] the “radioactive label remaining in the sebocytes, % of Control” value (human sebocytes; 1 μM test agent, 20 hour incubation, 96 well plate, lower = greater inhibition of lipogenesis) was 84.8* %, the “radioactive label remaining in the sebocytes, % of Control” value (human sebocytes; 10 μM test agent, 20 hour incubation, 96 well plate, lower = greater inhibition of lipogenesis) was 43.4* % and the “radioactive label remaining in the sebocytes, % of Control” value (human sebocytes; 100 μM test agent, 20 hour incubation, 96 well plate, lower = greater inhibition of lipogenesis) was 22.8* %.
